Laboratory results reported in PMC11079024, “Identification of a family of species-selective complex I inhibitors as potential anthelmintics” (Nature Communications, 2024).

Test system: anthelmintic/nematicide-resistant C. elegans mutant strains
Test: microbe, parasite or virus in culture
Excerpt: In addition to the Caenorhabditis elegans wild-type N2 strain, this work included the following C. elegans strains: CB1003 (kynu-1(e1003) X); anthelmintic-resistant strains—CB3474 (ben-1(e1880) III), CB193 (unc-29(e193) I), HY496 (bre-1(ye4) IV), RB2119 (acr-23(ok2804) V), JD608 (avr-14(ad1302) I; avr-15(ad1051) V; glc-1 (pk54) V), NM1968 (slo-1(js379) V), RP2635 (mev-1(tr355) III); benzimidazole-resistant CRISPR strains—ECA882 (ben-1(ean64) III), ECA917 (ben-1(ean98) III), ECA1075 (ben-1(ean143) III), ECA1080 (ben-1(ean148) III). This work also featured several additional free-living nematode strains: C. briggsae strain AF16, P. pacificus strain PS312, and P. hermaphrodita strain B178. The four CRISPR-generated benzimidazole-resistant C. elegans mutants were generously provided by Prof. Erik Andersen (Johns Hopkins University); PS312 and B178 were generously provided by Prof. Peter Roy (University of Toronto); all other strains were obtained from the Caenorhabditis Genetics Center (CGC, University of Minnesota). All strains were cultured and propagated at 20 °C on NGM (nematode growth medium) agar plates seeded with E. coli OP50 (Stiernagle, 2006)[56].
Liquid development and viability assays were adapted from a previously established chemical screening protocol (Burns et al.)[24]. In brief, a saturated culture of E. coli HB101 was concentrated 2-fold in liquid NGM and 40 μL of this suspension was distributed to each well of a 96-well flat-bottom culture plate. 0.5 μL chemical solution (or DMSO alone) was added to each well (1% DMSO v/v) using either a multi-channel pipette or a pinning tool (V&P Scientific). L1 worms synchronized from an embryo preparation performed the day prior were diluted to a concentration of ~2 worms/μL in M9 buffer; 10 μL worm suspension was then added to each well. Culture plates were sealed with parafilm and placed in a plastic container lined with wet paper towels to prevent evaporation. Containers were then incubated for 6 days at 20 °C with shaking at 165 rpm. Following incubation, 300 μL M9 was added to each well to decrease the turbidity of the HB101-NGM suspension. Single images of each microplate well were then taken on a Nikon Ti Eclipse inverted microscope (Nikon NIS Elements AR). Images were processed using Python scripts to isolate worm-associated pixels from background. Scores of worm development and viability were determined as the sum of worm-associated pixels in each well. Development/viability scores for each well were divided by the development /viability scores for the corresponding DMSO controls, resulting in a relative viability value for each chemical. At least three biological replicates were performed for each dose-response experiment; relative viability values were averaged across replicates.
Supplementary Table 2. Sensitivity of anthelmintic/nematicide-resistant strains to Class A, B, and C
benzimidazole complex I inhibitors.
LC50s were estimated from fitted dose-
response curves; all dose response data are the mean of at least three biological replicates.
Supplementary Table 2. Davie et al.

## COC(=O)Nc1nc2ccc(Sc3ccccc3)cc2[nH]1 [fenbendazole, reference compound]
1 µM, strain CB3474, G104D (ben-1)
  C. elegans L1 relative development & viability (score 0-1 relative to DMSO controls): 1.000
1 µM, strain ECA917, F200Y (ben-1)
  C. elegans L1 relative development & viability (score 0-1 relative to DMSO controls): 1.000
1 µM, strain ECA1075, F167Y (ben-1)
  C. elegans L1 relative development & viability (score 0-1 relative to DMSO controls): 1.000
1 µM, strain ECA1080, E198A (ben-1)
  C. elegans L1 relative development & viability (score 0-1 relative to DMSO controls): 1.000
2 µM, strain CB3474, G104D (ben-1)
  C. elegans L1 relative development & viability (score 0-1 relative to DMSO controls): 1.000
2 µM, strain ECA917, F200Y (ben-1)
  C. elegans L1 relative development & viability (score 0-1 relative to DMSO controls): 1.000
2 µM, strain ECA1075, F167Y (ben-1)
  C. elegans L1 relative development & viability (score 0-1 relative to DMSO controls): 1.000
2 µM, strain ECA1080, E198A (ben-1)
  C. elegans L1 relative development & viability (score 0-1 relative to DMSO controls): 1.000
3.9 µM, strain CB3474, G104D (ben-1)
  C. elegans L1 relative development & viability (score 0-1 relative to DMSO controls): 1.000
3.9 µM, strain ECA917, F200Y (ben-1)
  C. elegans L1 relative development & viability (score 0-1 relative to DMSO controls): 1.000
3.9 µM, strain ECA1075, F167Y (ben-1)
  C. elegans L1 relative development & viability (score 0-1 relative to DMSO controls): 1.000
3.9 µM, strain ECA1080, E198A (ben-1)
  C. elegans L1 relative development & viability (score 0-1 relative to DMSO controls): 1.000
15.6 µM, strain CB3474, G104D (ben-1)
  C. elegans L1 relative development & viability (score 0-1 relative to DMSO controls): 1.000
15.6 µM, strain ECA917, F200Y (ben-1)
  C. elegans L1 relative development & viability (score 0-1 relative to DMSO controls): 1.000
15.6 µM, strain ECA1075, F167Y (ben-1)
  C. elegans L1 relative development & viability (score 0-1 relative to DMSO controls): 1.000
15.6 µM, strain ECA1080, E198A (ben-1)
  C. elegans L1 relative development & viability (score 0-1 relative to DMSO controls): 0.957
31.3 µM, strain CB3474, G104D (ben-1)
  C. elegans L1 relative development & viability (score 0-1 relative to DMSO controls): 1.000
31.3 µM, strain ECA917, F200Y (ben-1)
  C. elegans L1 relative development & viability (score 0-1 relative to DMSO controls): 1.000
31.3 µM, strain ECA1075, F167Y (ben-1)
  C. elegans L1 relative development & viability (score 0-1 relative to DMSO controls): 1.000
31.3 µM, strain ECA1080, E198A (ben-1)
  C. elegans L1 relative development & viability (score 0-1 relative to DMSO controls): 1.000
62.5 µM, strain CB3474, G104D (ben-1)
  C. elegans L1 relative development & viability (score 0-1 relative to DMSO controls): 0.845
62.5 µM, strain ECA917, F200Y (ben-1)
  C. elegans L1 relative development & viability (score 0-1 relative to DMSO controls): 1.000
62.5 µM, strain ECA1075, F167Y (ben-1)
  C. elegans L1 relative development & viability (score 0-1 relative to DMSO controls): 0.934
62.5 µM, strain ECA1080, E198A (ben-1)
  C. elegans L1 relative development & viability (score 0-1 relative to DMSO controls): 1.000
125 µM, strain CB3474, G104D (ben-1)
  C. elegans L1 relative development & viability (score 0-1 relative to DMSO controls): 0.790
125 µM, strain ECA917, F200Y (ben-1)
  C. elegans L1 relative development & viability (score 0-1 relative to DMSO controls): 0.784
125 µM, strain ECA1075, F167Y (ben-1)
  C. elegans L1 relative development & viability (score 0-1 relative to DMSO controls): 0.665
125 µM, strain ECA1080, E198A (ben-1)
  C. elegans L1 relative development & viability (score 0-1 relative to DMSO controls): 0.759
250 µM, strain CB3474, G104D (ben-1)
  C. elegans L1 relative development & viability (score 0-1 relative to DMSO controls): 0.720
250 µM, strain ECA917, F200Y (ben-1)
  C. elegans L1 relative development & viability (score 0-1 relative to DMSO controls): 0.835
250 µM, strain ECA1075, F167Y (ben-1)
  C. elegans L1 relative development & viability (score 0-1 relative to DMSO controls): 0.796
250 µM, strain ECA1080, E198A (ben-1)
  C. elegans L1 relative development & viability (score 0-1 relative to DMSO controls): 0.686
500 µM, strain CB3474, G104D (ben-1)
  C. elegans L1 relative development & viability (score 0-1 relative to DMSO controls): 0.538
500 µM, strain ECA917, F200Y (ben-1)
  C. elegans L1 relative development & viability (score 0-1 relative to DMSO controls): 0.716
500 µM, strain ECA1075, F167Y (ben-1)
  C. elegans L1 relative development & viability (score 0-1 relative to DMSO controls): 0.599
500 µM, strain ECA1080, E198A (ben-1)
  C. elegans L1 relative development & viability (score 0-1 relative to DMSO controls): 0.597
CB3474 G104D (ben-1), 1 µM, score 0-1 relative to DMSO, values >1 set to 1
  C. elegans L1 relative development & viability: 1.000
CB3474 G104D (ben-1), 2 µM, score 0-1 relative to DMSO, values >1 set to 1
  C. elegans L1 relative development & viability: 1.000
CB3474 G104D (ben-1), 3.9 µM, score 0-1 relative to DMSO, values >1 set to 1
  C. elegans L1 relative development & viability: 1.000
CB3474 G104D (ben-1), 15.6 µM, score 0-1 relative to DMSO, values >1 set to 1
  C. elegans L1 relative development & viability: 1.000
CB3474 G104D (ben-1), 31.3 µM, score 0-1 relative to DMSO, values >1 set to 1
  C. elegans L1 relative development & viability: 1.000
CB3474 G104D (ben-1), 62.5 µM, […]
  C. elegans L1 relative development & viability: 0.845
CB3474 G104D (ben-1), 125 µM, […]
  C. elegans L1 relative development & viability: 0.790
CB3474 G104D (ben-1), 250 µM, […]
  C. elegans L1 relative development & viability: 0.720
CB3474 G104D (ben-1), 500 µM, […]
  C. elegans L1 relative development & viability: 0.538
ECA917 F200Y (ben-1), 1 µM, score 0-1 relative to DMSO, values >1 set to 1
  C. elegans L1 relative development & viability: 1.000
ECA917 F200Y (ben-1), 2 µM, score 0-1 relative to DMSO, values >1 set to 1
  C. elegans L1 relative development & viability: 1.000
ECA917 F200Y (ben-1), 3.9 µM, score 0-1 relative to DMSO, values >1 set to 1
  C. elegans L1 relative development & viability: 1.000
ECA917 F200Y (ben-1), 15.6 µM, score 0-1 relative to DMSO, values >1 set to 1
  C. elegans L1 relative development & viability: 1.000
ECA917 F200Y (ben-1), 31.3 µM, score 0-1 relative to DMSO, values >1 set to 1
  C. elegans L1 relative development & viability: 1.000
ECA917 F200Y (ben-1), 62.5 µM, score 0-1 relative to DMSO, values >1 set to 1
  C. elegans L1 relative development & viability: 1.000
ECA917 F200Y (ben-1), 125 µM, […]
  C. elegans L1 relative development & viability: 0.784
ECA917 F200Y (ben-1), 250 µM, […]
  C. elegans L1 relative development & viability: 0.835
ECA917 F200Y (ben-1), 500 µM, […]
  C. elegans L1 relative development & viability: 0.716
ECA1075 F167Y (ben-1), 1 µM, score 0-1 relative to DMSO, values >1 set to 1
  C. elegans L1 relative development & viability: 1.000
ECA1075 F167Y (ben-1), 2 µM, score 0-1 relative to DMSO, values >1 set to 1
  C. elegans L1 relative development & viability: 1.000
ECA1075 F167Y (ben-1), 3.9 µM, score 0-1 relative to DMSO, values >1 set to 1
  C. elegans L1 relative development & viability: 1.000
ECA1075 F167Y (ben-1), 15.6 µM, score 0-1 relative to DMSO, values >1 set to 1
  C. elegans L1 relative development & viability: 1.000
ECA1075 F167Y (ben-1), 31.3 µM, score 0-1 relative to DMSO, values >1 set to 1
  C. elegans L1 relative development & viability: 1.000
ECA1075 F167Y (ben-1), 62.5 µM, […]
  C. elegans L1 relative development & viability: 0.934
ECA1075 F167Y (ben-1), 125 µM, […]
  C. elegans L1 relative development & viability: 0.665
ECA1075 F167Y (ben-1), 250 µM, […]
  C. elegans L1 relative development & viability: 0.796
ECA1075 F167Y (ben-1), 500 µM, […]
  C. elegans L1 relative development & viability: 0.599
ECA1080 E198A (ben-1), 1 µM, score 0-1 relative to DMSO, values >1 set to 1
  C. elegans L1 relative development & viability: 1.000
ECA1080 E198A (ben-1), 2 µM, score 0-1 relative to DMSO, values >1 set to 1
  C. elegans L1 relative development & viability: 1.000
ECA1080 E198A (ben-1), 3.9 µM, score 0-1 relative to DMSO, values >1 set to 1
  C. elegans L1 relative development & viability: 1.000
ECA1080 E198A (ben-1), 15.6 µM, […]
  C. elegans L1 relative development & viability: 0.957
ECA1080 E198A (ben-1), 31.3 µM, score 0-1 relative to DMSO, values >1 set to 1
  C. elegans L1 relative development & viability: 1.000
ECA1080 E198A (ben-1), 62.5 µM, score 0-1 relative to DMSO, values >1 set to 1
  C. elegans L1 relative development & viability: 1.000
ECA1080 E198A (ben-1), 125 µM, […]
  C. elegans L1 relative development & viability: 0.759
ECA1080 E198A (ben-1), 250 µM, […]
  C. elegans L1 relative development & viability: 0.686
ECA1080 E198A (ben-1), 500 µM, […]
  C. elegans L1 relative development & viability: 0.597
